One block for each molecule: values may come before it.
Assays:
Human 5-HT6 receptor = molecular target: T1, Human 5-HT6 receptor (Homo sapiens, UniProt P50406); experiment: Binding assay for human 5-HT6 receptor ([3H]LSD radioligand); settings: human recombinant receptor in HEK293 cells; for inhibition at 0.1 µM: 100 nM test compound, [3H]LSD 1.5 nM, read-out: % Inhibition of specific binding at 100 nM; for Ki: [3H]LSD
T1 construct: expressed in transfected cells; host or cells: HEK293 cells
Procedure: Compounds can be tested according to the following the procedures.
Receptor source: Human recombinant expressed in HEK293 cells
Radioligand: [^3H]LSD (60-80 Ci/mmol)
Final ligand concentration—[1.5 nM]
Non-specific determinant: Methiothepin mesylate—[0.1 μM]
Reference compound: Methiothepin mesylate
Positive control: Methiothepin mesylate
Reactions were carried out in […] TRIS-HCl (pH 7.4) containing 10 μM MgCl2, 0.5 mM EDTA for 60 minutes at 37° C. The reaction was terminated by rapid vacuum filtration onto glass fiber filters. Radioactivity trapped onto the filters was determined and compared to control values in order to ascertain any interactions of test compound(s) with the cloned serotonin 5-HT6 binding site.
Percent Inhibition of Specific Binding at 100 nM Concentrations
Literature Reference: Monsma F. J. Jr., et al., Molecular Cloning and Expression of Novel Serotonin Receptor with High Affinity for Tricyclic Psychotropic Drugs. Mol. Pharmacol. (43): 320-327 (1993).

[1] = Rodent pharmacokinetic study; format: in vivo, Male wistar rats; settings: plasma, Wistar/Male rat, 10 mg/kg; for AUC(0-t) / Cmax / Tmax / half-life: vehicle water; for bioavailability: Oral vs Intravenous
Procedure: Male wistar rats (230-280 grams) obtained from NIN (National Institute of Nutrition, Hyderabad, India) were used as an experimental animal.
Three to five animals were housed in each cage. Animals were kept fasted over night and maintained on a 12 hours light/dark cycle. Three rats were dosed NCE (10 mg/Kg) orally and intravenously on day 0 and day 2.
At each time point blood was collected by jugular vein. Plasma was stored frozen at −20° C. until analysis. The concentrations of the NCE compound in plasma were determined using LC-MS/MS method.
Schedule time points: Pre dose 0.25, 0.5, 1, 1.5, 2, 3, 4, 6, 8, 10, 12 and 24 hours after dosing (n=3). The NCE compounds were quantified in plasma by validated LC-MS/MS method using solid phase extraction technique. NCE compounds were quantified in the calibration range of 2-2000 ng/ml in plasma. Study samples were analyzed using calibration samples in the batch and quality control samples spread across the batch.
Pharmacokinetic parameters Cmax, Tmax, AUCt, AUCinf, half life, volume of distribution, clearance, mean residence time and thereby oral bioavailability were calculated by non-compartmental model using software WinNonlin version 5.1.

[2] = Rodent brain penetration study (steady state); format: in vivo, Male Wister rats; settings: Wistar, brain and plasma; Wister/Male rat, 10 mg/kg, Oral, vehicle water; read-out: Steady State Brain Penetration Cb/Cp
Male Wister rats = experiment: Object recognition task model (NORT); format: in vivo; settings: p.o.; for NORT Discriminative Index (DI), treatment: vehicle value in brackets in the cell; for NORT Inference: 10 and 30 mg/kg
Procedure: The cognition-enhancing properties of compounds of this invention were estimated using a model of animal cognition: the object recognition task model. Male Wister rats (230-280 grams) obtained from N.I.N. (National Institute of Nutrition, Hyderabad, India) were used as experimental animals. Four animals were housed in each cage. Animals were kept on 20% food deprivation before one day and given water ad libitum throughout the experiment and maintained on a 12 hours light/dark cycle. Also the rats were habituated to individual arenas for 1 hour in the absence of any objects.
One group of 12 rats received vehicle (1 mL/Kg) orally and another set of animals received compound of the formula (I) either orally or i.p., before one hour of the familiar (T1) and choice trial (T2).
The experiment was carried out in a 50×50×50 cm open field made up of acrylic. In the familiarization phase, (T1), the rats were placed individually in the open field for 3 minutes, in which two identical objects (plastic bottles, 12.5 cm height×5.5 cm diameter) covered in yellow masking tape alone (a1 and a2) were positioned in two adjacent corners, 10 cm. from the walls. After 24 hours of the (T1) trial for long-term memory test, the same rats were placed in the same arena as they were placed in T1 trial. Choice phase (T2) rats were allowed to explore the open field for 3 minutes in presence of one familiar object (a3) and one novel object (b) (Amber color glass bottle, 12 cm high and 5 cm in diameter). Familiar objects presented similar textures, colors and sizes. During the T1 and T2 trial, explorations of each object (defined as sniffing, licking, chewing or having moving vibrissae whilst directing the nose towards the object at a distance of less than 1 cm) were recorded separately by stopwatch. Sitting on an object was not regarded as exploratory activity, however, it was rarely observed. T1 is the total time spent exploring the familiar objects (a1+a2). T2 is the total time spent exploring the familiar object and novel object (a3+b).
The object recognition test was performed as described by Ennaceur, A., Delacour, J., 1988, A new one-trial test for neurobiological studies of memory in rats-Behavioral data, Behav. Brain Res., 31, 47-59.

rats = experiment: Water maze, scopolamine induced reversal; format: in vivo; settings: p.o.
Procedure: The water maze apparatus consisted of a circular pool (1.8 m diameter, 0.6 m high) constructed in black Perspex (TSE systems, Germany) filled with water (24±2° C.) and positioned underneath a wide-angled video camera to track animal. The 10 cm^2 perspex platform, lying 1 cm below the water surface, was placed in the centre of one of the four imaginary quadrants, which remained constant for all rats. The black Perspex used in the construction of the maze and platform offered no intramaze cues to guide escape behavior. By contrast, the training room offered several strong extramaze visual cues to aid the formation of the spatial map necessary for escape learning. An automated tracking system, [Videomot 2 (5.51), TSE systems, Germany] was employed. This program analyzes video images acquired via a digital camera and an image acquisition board that determined path length, swim speed and the number of entries and duration of swim time spent in each quadrant of the water maze.

[3] = test system: animal models for schizophrenia; settings: Pouzet et al. 2002; cited from earlier work
5-HT6 receptor = settings: literature; cited from earlier work

T1 sequence (P50406 whole entry): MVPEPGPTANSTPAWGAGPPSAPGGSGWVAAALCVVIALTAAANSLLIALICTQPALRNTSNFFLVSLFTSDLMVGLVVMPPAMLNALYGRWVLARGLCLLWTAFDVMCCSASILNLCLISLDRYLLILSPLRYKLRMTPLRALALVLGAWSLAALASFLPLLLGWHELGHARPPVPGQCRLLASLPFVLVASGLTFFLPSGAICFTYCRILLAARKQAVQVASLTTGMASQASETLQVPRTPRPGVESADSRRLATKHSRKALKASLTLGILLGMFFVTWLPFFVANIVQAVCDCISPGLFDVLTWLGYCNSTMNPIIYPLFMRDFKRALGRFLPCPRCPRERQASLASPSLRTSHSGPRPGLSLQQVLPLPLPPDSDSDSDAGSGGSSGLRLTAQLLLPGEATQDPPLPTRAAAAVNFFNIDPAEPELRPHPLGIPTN

- inhibition at 0.1 µM (Human 5-HT6 receptor): 82.9%
SMILES: COc1ccc2c(c1)c(C)cn2S(=O)(=O)c1ccc(OC)c(NCCN(C)C)c1 [Example 1, N′-[2-Methoxy-5-(5-methoxy-3-methylindole-1-sulfonyl)phenyl]-N,N-dimethyl ethane-1,2-diamine]

- inhibition at 0.1 µM (Human 5-HT6 receptor): 84.9%
SMILES: COc1ccc2c(c1)c(Cl)cn2S(=O)(=O)c1ccc(OC)c(NCCN(C)C)c1 [Example 2, N′-[5-(3-Chloro-5-methoxyindole-1-sulfonyl)-2-methoxyphenyl]-N,N-dimethyl ethane-1,2-diamine]

- inhibition at 0.1 µM (Human 5-HT6 receptor): 95.6%
- Ki (Human 5-HT6 receptor): 3.02 nM
SMILES: COc1ccc(S(=O)(=O)n2cc(Cl)c3ccccc32)cc1NCCN(C)C [Example 3, N′-[5-(3-Chloroindole-1-sulfonyl)-2-methoxyphenyl]-N,N-dimethyl ethane-1,2-diamine]

- inhibition at 0.1 µM (Human 5-HT6 receptor): 90.5%
- Ki (Human 5-HT6 receptor): 1.22 nM
- AUC(0-t) ([1]; Intravenous): 1.87 ± 0.338 µg·h/mL
- Cmax ([1]; Intravenous): 1.59 ± 0.538 µg/mL
- Tmax ([1]; Intravenous): 0.08 h
- half-life ([1]; Intravenous): 2.93 ± 1.29 h
- bioavailability [1]: 5 ± 2%
- AUC(0-t) ([1]; Oral): 0.088 ± 0.048 µg·h/mL
- Cmax ([1]; Oral): 0.041 ± 0.019 µg/mL
- Tmax ([1]; Oral): 0.58 ± 0.38 h
- half-life ([1]; Oral): 1.95 ± 0.73 h
- Kp [2]: 20.2 ± 1.84
SMILES: COc1ccc(S(=O)(=O)n2ccc3ccccc32)cc1NCCN(C)C [Example 4, N′-[5-(Indole-1-sulfonyl)-2-methoxyphenyl]-N,N-dimethyl ethane-1,2-diamine]

- inhibition at 0.1 µM (Human 5-HT6 receptor): 93%
- Ki (Human 5-HT6 receptor): 1.52 nM
- AUC(0-t) ([1]; Intravenous): 2.86 ± 0.442 µg·h/mL
- Cmax ([1]; Intravenous): 1.96 ± 0.458 µg/mL
- Tmax ([1]; Intravenous): 0.08 h
- half-life ([1]; Intravenous): 3.37 ± 0.29 h
- bioavailability [1]: 6 ± 1%
- AUC(0-t) ([1]; Oral): 0.158 ± 0.02 µg·h/mL
- Cmax ([1]; Oral): 0.036 ± 0.008 µg/mL
- Tmax ([1]; Oral): 1.33 ± 0.58 h
- half-life ([1]; Oral): 2.27 ± 0.2 h
- Kp [2]: 13.5 ± 4.28
SMILES: COc1ccc(S(=O)(=O)n2cc(C)c3ccccc32)cc1NCCN(C)C [Example 5, N′-[2-Methoxy-5-(3-methylindole-1-sulfonyl)phenyl]-N,N-dimethyl ethane-1,2-diamine]
- NORT Discriminative Index (DI), treatment (Male Wister rats; 10 mg/kg): 0.46 (0.52)
- NORT Discriminative Index (DI), treatment (Male Wister rats; 30 mg/kg): 0.58 (0.56)
- NORT Inference (Male Wister rats): Active
- Scopolamine Induced Reversal (active dose) (rats): ≧3 mg/kg, p.o.

- Ki (Human 5-HT6 receptor): 17.3 nM
SMILES: COc1ccc2c(c1)c(C)cn2S(=O)(=O)c1ccc(C)c(NCCN(C)C)c1 [Example 8, N′-[5-(5-Methoxy-3-methylindole-1-sulfonyl)-2-methylphenyl]-N,N-dimethyl ethane-1,2-diamine]

- Ki (Human 5-HT6 receptor): 41 nM
SMILES: COc1ccc2c(ccn2S(=O)(=O)c2ccc(C)c(NCCCN(C)C)c2)c1 [Example 9, N′-[5-(5-Methoxyindole-1-sulfonyl)-2-methylphenyl]-N,N-dimethyl propane-1,3-diamine]

- inhibition at 0.1 µM (Human 5-HT6 receptor): 70.7%
SMILES: CCc1ccc(S(=O)(=O)n2ccc3cc(F)ccc32)cc1NCCN(C)C [Example 13, N′-[2-Ethyl-5-(5-fluoroindole-1-sulfonyl)phenyl]-N,N-dimethyl ethane-1,2-diamine]

- inhibition at 0.1 µM (Human 5-HT6 receptor): 56.4%
SMILES: CCc1ccc(S(=O)(=O)n2cc(C)c3cc(OC)ccc32)cc1NCCN(C)C [Example 15, N′-[2-Ethyl-5-(5-methoxy-3-methylindole-1-sulfonyl)phenyl]-N,N-dimethyl ethane-1,2-diamine]

- inhibition at 0.1 µM (Human 5-HT6 receptor): 100%
SMILES: Cc1ccc(S(=O)(=O)n2ccc3ccc(Cl)cc32)cc1NCCN(C)C [Example 20, N′-[5-(6-Chloroindole-1-sulfonyl)-2-methylphenyl]-N,N-dimethyl ethane-1,2-diamine]

- inhibition at 0.1 µM (Human 5-HT6 receptor): 96%
SMILES: CN(C)CCNc1cccc(S(=O)(=O)n2ccc3ccc(Cl)cc32)c1 [Example 23, N′-[3-(6-Chloroindole-1-sulfonyl)phenyl]-N,N-dimethyl ethane-1,2-diamine]

- inhibition at 0.1 µM (Human 5-HT6 receptor): 76%
SMILES: CCc1ccc(S(=O)(=O)n2ccc3cc(OC)ccc32)cc1NCCN(C)C [Example 26, N′-[2-Ethyl-5-(5-methoxyindole-1-sulfonyl)phenyl]-N,N-dimethyl ethane-1,2-diamine]

- Ki (Human 5-HT6 receptor): 2.92 nM
- AUC(0-t) ([1]; Intravenous): 3.48 ± 0.65 µg·h/mL
- Cmax ([1]; Intravenous): 1.73 ± 0.682 µg/mL
- Tmax ([1]; Intravenous): 0.08 h
- half-life ([1]; Intravenous): 2.72 ± 0.4 h
- bioavailability [1]: 19 ± 7%
- AUC(0-t) ([1]; Oral): 0.673 ± 0.32 µg·h/mL
- Cmax ([1]; Oral): 0.14 ± 0.0768 µg/mL
- Tmax ([1]; Oral): 2.33 ± 1.53 h
- half-life ([1]; Oral): 5.06 ± 3.28 h
- Kp [2]: 3.48 ± 0.27
SMILES: COc1ccc(S(=O)(=O)n2cc(C)c3ccccc32)cc1NCCCN(C)C [Example 31, N′-[2-Methoxy-5-(3-methylindole-1-sulfonyl)phenyl]-N,N-dimethyl propane-1,3-diamine]
- NORT Discriminative Index (DI), treatment (Male Wister rats; 10 mg/kg): 0.54 (0.48)
- NORT Discriminative Index (DI), treatment (Male Wister rats; 30 mg/kg): 0.52 (0.52)
- NORT Inference (Male Wister rats): Active
- Scopolamine Induced Reversal (active dose) (rats): ≧30 mg/kg, p.o.

- Ki (Human 5-HT6 receptor): 7.34 nM
SMILES: COc1ccc(S(=O)(=O)n2cc(C)c3cc(F)ccc32)cc1NCCCN(C)C [Example 33, N′-[2-Methoxy-5-(5-fluoro-3-methylindole-1-sulfonyl)phenyl]-N,N-dimethyl propane-1,3-diamine]

- Ki (Human 5-HT6 receptor): 18.9 nM
SMILES: COc1ccc2c(c1)c(C)cn2S(=O)(=O)c1ccc(OC)c(NCCCN(C)C)c1 [Example 35, N′-[2-Methoxy-5-(5-methoxy-3-methylindole-1-sulfonyl)phenyl]-N,N-dimethyl propane-1,3-diamine]

SMILES: COc1ccc(NS(=O)(=O)c2sc3ccc(Cl)cc3c2C)cc1N1CCNCC1 [SB-271046, 5-Chloro-N-(4-methoxy-3-piperazin-1-ylphenyl)-3-methyl-2-benzothiophenesulfonamide]
- Activity in animal tests related to positive or negative symptoms of schizophrenia [3]: inactive

SMILES: CN(C)CCC=C1c2ccccc2CCc2ccccc21 [amitriptyline]
- Affinity for the 5-HT6 receptor (5-HT6 receptor): high affinity

SMILES: CN1CCN2c3ccccc3Cc3ccccc3C2C1 (centres unmarked) [mianserin]
- Affinity for the 5-HT6 receptor (5-HT6 receptor): high affinity

Reference: patent publication US7964627B2, “Amino arylsulfonamide compounds and their use as 5-HT6 ligands” (Suven Life Sciences Limited, priority 2007, dated 2011)
